In ChEMBL document CHEMBL1201862, “PubChem BioAssay data set” (2004):
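Protocol summary: plate cells (96-well), add compound at 5 concentrations, incubate 48 h, interpolate endpoints linearly. At the GI50, growth is halved.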 Active and inactive are the calls of the source. Cut-off read from the data, not from the text of the source: active = GI50 up to about 1.1 µM and inactive = higher.

Columns and labels:
Assay in all cases: growth of human tumour cells (NCI), 48 h
[1] = system: NCI-H522
[2] = system: SK-MEL-2
[3] = system: SK-OV-3
[4] = system: SK-MEL-28
[5] = system: MDA-MB-231
[6] = system: Hs-578T
[7] = system: U-251
[8] = system: RPMI-8226
[9] = system: DU-145
[10] = system: Malme-3M
[11] = system: 786-0
[12] = system: HT-29
[13] = system: KM12
[14] = system: NCI-H226
[15] = system: HOP-92
[16] = system: CAKI-1
[17] = system: HCT-116
[18] = system: MOLT-4
[19] = system: M14
[20] = system: SN12C
[21] = system: MDA-N
[22] = system: TK-10
[23] = system: IGROV-1
[24] = system: T47D
[25] = system: SF-539
[26] = system: OVCAR-8
[27] = system: MDA-MB-435
[28] = system: PC-3
[29] = system: A549
[30] = system: UACC-62
[31] = system: OVCAR-5
[32] = system: CCRF-CEM
[33] = system: A498
[34] = system: HCT-15
[35] = system: RXF 393
[36] = system: OVCAR-4
[37] = system: SF-268
[38] = system: K562
[39] = system: NCI-H460
[40] = system: UACC-257
[41] = system: HOP-62
[42] = system: SR
[43] = system: SF-295
[44] = system: NCI-H23
[45] = system: SK-MEL-5
[46] = system: BT-549
[47] = system: HCC 2998
[48] = system: MCF7
[49] = system: COLO 205
[50] = system: SNB-75
[51] = system: NCI/ADR-RES
[52] = system: OVCAR-3
[53] = system: ACHN
[54] = system: UO-31
[55] = system: SW-620
[56] = system: SNB-78
[57] = system: LXFL 529
[58] = system: KM-20L2
[59] = system: EKVX
[60] = system: DMS-273
[61] = system: LOX IMVI
[62] = system: SNB-19
[63] = system: HOP-18
[64] = system: DMS-114

In the case of `CC(=O)N1N=C(c2c(O)ccc3ccccc23)CC1c1ccc(Cl)cc1` (configuration not stated), the GI50 [1] is reported as 22.9 µM (inactive), the GI50 [2] is reported as 17.5 µM (inactive) and the GI50 [3] is reported as 28.4 µM (inactive). The GI50 [4] was 27.4 µM (inactive), the GI50 [5] was 19.1 µM (inactive) and the GI50 [6] was 17.1 µM (inactive). For the same compound, the GI50 [7] was 21.9 µM (inactive), the GI50 [8] was 10.5 µM (inactive) and the GI50 [9] was 43.8 µM (inactive). The GI50 [10] was 17.5 µM (inactive), the GI50 [11] was 27.1 µM (inactive) and the GI50 [12] was 24.7 µM (inactive). For the same compound, the GI50 [13] was 13.7 µM (inactive), the GI50 [14] was 40 µM (inactive) and the GI50 [15] was 10.9 µM (inactive). The GI50 [16] was 32.9 µM (inactive), the GI50 [17] was 15 µM (inactive) and the GI50 [18] was 10.9 µM (inactive). For the same compound, the GI50 [19] was 14.2 µM (inactive), the GI50 [20] was 18.7 µM (inactive) and the GI50 [21] was 19.5 µM (inactive). The GI50 [22] was 30.1 µM (inactive), the GI50 [23] was 12.4 µM (inactive) and the GI50 [24] was 37.5 µM (inactive). The GI50 [25] was 18.4 µM (inactive), the GI50 [26] was 26.9 µM (inactive) and the GI50 [27] was 22.4 µM (inactive). For the same compound, the GI50 [28] was 17 µM (inactive), the GI50 [29] was 23.6 µM (inactive) and the GI50 [30] was 14.1 µM (inactive). The GI50 [31] was 14.7 µM (inactive), the GI50 [32] was 3.8 µM (inactive) and the GI50 [33] was 26.1 µM (inactive). For the same compound, the GI50 [34] was 28.4 µM, the GI50 [35] was 17.1 µM (inactive) and the GI50 [36] was 19.6 µM (inactive). The GI50 [37] was 26.3 µM (inactive), the GI50 [38] was 13.1 µM (inactive) and the GI50 [39] was 15.1 µM (inactive). The GI50 [40] was 27.9 µM (inactive), the GI50 [41] was 16 µM (inactive) and the GI50 [42] was 6.35 µM (inactive). The GI50 [43] was 19.9 µM (inactive), the GI50 [44] was 15.1 µM (inactive) and the GI50 [45] was 21 µM (inactive). The GI50 [46] was 21 µM (inactive), the GI50 [47] was 17.7 µM (inactive) and the GI50 [48] was 15.5 µM (inactive). The GI50 [49] was 19.9 µM (inactive), the GI50 [50] was 22 µM (inactive) and the GI50 [51] was 14.5 µM (inactive). The GI50 [52] was 14.1 µM (inactive), the GI50 [53] was 25.5 µM (inactive) and the GI50 [54] was 19.8 µM (inactive). For the same compound, the GI50 [55] was 28.4 µM (inactive).
In the case of `COc1ccc(NC(=O)C2C(=O)N(c3ccc(OC)cc3)C(=O)/C2=N\NC(N)=O)cc1` (configuration not stated), the GI50 [1] is reported as 45.6 µM (inactive), the GI50 [2] is reported as 40.9 µM (inactive) and the GI50 [3] is reported as 22.1 µM (inactive). The GI50 [4] was 59.7 µM (inactive), the GI50 [7] was 18.5 µM (inactive) and the GI50 [8] was > 100 µM (inactive). The GI50 [10] was 25.7 µM (inactive), the GI50 [11] was 21.5 µM (inactive) and the GI50 [12] was 58.6 µM (inactive). For the same compound, the GI50 [56] was 57.1 µM (inactive), the GI50 [13] was 20.3 µM (inactive) and the GI50 [14] was 21.8 µM (inactive). The GI50 [57] was 39.9 µM (inactive), the GI50 [15] was 31.3 µM (inactive) and the GI50 [16] was > 100 µM (inactive). For the same compound, the GI50 [17] was 21.2 µM (inactive), the GI50 [58] was 49.5 µM (inactive) and the GI50 [19] was 92.5 µM (inactive). For the same compound, the GI50 [20] was 98.9 µM (inactive), the GI50 [22] was 23.9 µM (inactive) and the GI50 [23] was 19.7 µM (inactive). The GI50 [25] was 16.8 µM (inactive), the GI50 [26] was 19.4 µM (inactive) and the GI50 [59] was 40.6 µM (inactive). The GI50 [30] was 16.6 µM (inactive), the GI50 [60] was 43.6 µM (inactive) and the GI50 [31] was 97.5 µM (inactive). The GI50 [33] was 22.1 µM (inactive), the GI50 [34] was greater than 100 µM and the GI50 [35] was 22.5 µM (inactive). The GI50 [36] was 34.1 µM (inactive), the GI50 [37] was 20.2 µM (inactive) and the GI50 [38] was > 100 µM (inactive). The GI50 [39] was 38.9 µM (inactive), the GI50 [40] was 46.9 µM (inactive) and the GI50 [61] was 65.8 µM (inactive). For the same compound, the GI50 [41] was 16.3 µM (inactive), the GI50 [62] was 41.1 µM (inactive) and the GI50 [43] was 37.1 µM (inactive). For the same compound, the GI50 [63] was 21.2 µM (inactive), the GI50 [44] was 56.1 µM (inactive) and the GI50 [45] was 17.8 µM (inactive). The GI50 [47] was 30.9 µM (inactive), the GI50 [64] was 63.7 µM (inactive) and the GI50 [49] was > 100 µM (inactive). For the same compound, the GI50 [50] was 20.6 µM (inactive), the GI50 [52] was 34 µM (inactive) and the GI50 [53] was 27.6 µM (inactive). The GI50 [54] was 27.7 µM (inactive) and the GI50 [55] was > 100 µM (inactive).
For `CC(=O)O[C@H]1C[C@H]2C(=S)Nc3ccccc3C(=S)N2C1`, the GI50 [1] was > 100 µM (inactive), the GI50 [2] was > 100 µM (inactive) and the GI50 [3] was > 100 µM (inactive). For the same compound, the GI50 [4] was > 100 µM (inactive), the GI50 [5] was > 100 µM (inactive) and the GI50 [6] was > 100 µM (inactive). The GI50 [7] was > 100 µM (inactive), the GI50 [8] was > 100 µM (inactive) and the GI50 [9] was > 100 µM (inactive). For the same compound, the GI50 [10] was > 100 µM (inactive), the GI50 [11] was > 100 µM (inactive) and the GI50 [12] was > 100 µM (inactive). For the same compound, the GI50 [13] was > 100 µM (inactive), the GI50 [14] was > 100 µM (inactive) and the GI50 [15] was > 100 µM (inactive). For the same compound, the GI50 [16] was > 100 µM (inactive), the GI50 [17] was > 100 µM (inactive) and the GI50 [18] was > 100 µM (inactive). For the same compound, the GI50 [19] was > 100 µM (inactive), the GI50 [20] was > 100 µM (inactive) and the GI50 [21] was > 100 µM (inactive). The GI50 [22] was > 100 µM (inactive), the GI50 [23] was > 100 µM (inactive) and the GI50 [24] was > 100 µM (inactive). For the same compound, the GI50 [26] was > 100 µM (inactive), the GI50 [59] was > 100 µM (inactive) and the GI50 [27] was > 100 µM (inactive). The GI50 [28] was > 100 µM (inactive), the GI50 [29] was > 100 µM (inactive) and the GI50 [30] was > 100 µM (inactive). The GI50 [31] was > 100 µM (inactive), the GI50 [32] was > 100 µM (inactive) and the GI50 [33] was > 100 µM (inactive). The GI50 [34] was greater than 100 µM, the GI50 [35] was > 100 µM (inactive) and the GI50 [36] was > 100 µM (inactive). For the same compound, the GI50 [37] was > 100 µM (inactive), the GI50 [38] was > 100 µM (inactive) and the GI50 [39] was > 100 µM (inactive). For the same compound, the GI50 [40] was > 100 µM (inactive), the GI50 [61] was > 100 µM (inactive) and the GI50 [41] was > 100 µM (inactive). For the same compound, the GI50 [42] was > 100 µM (inactive), the GI50 [62] was > 100 µM (inactive) and the GI50 [43] was > 100 µM (inactive). For the same compound, the GI50 [44] was > 100 µM (inactive), the GI50 [45] was > 100 µM (inactive) and the GI50 [46] was > 100 µM (inactive). The GI50 [47] was > 100 µM (inactive), the GI50 [48] was > 100 µM (inactive) and the GI50 [49] was > 100 µM (inactive). The GI50 [50] was 88.3 µM (inactive), the GI50 [51] was > 100 µM (inactive) and the GI50 [52] was > 100 µM (inactive). The GI50 [53] was > 100 µM (inactive), the GI50 [54] was > 100 µM (inactive) and the GI50 [55] was > 100 µM (inactive).
